{
  "source": "paper PMC7816042",
  "about": "“Insights into the Structure-Activity Relationship of Glycosides as Positive Allosteric Modulators Acting on P2X7 Receptors” (Molecular Pharmacology, 2021)",
  "key": {"HEK-hP2X7 cells": {"system": "HEK-hP2X7 cells", "test": "Cell viability assay (resazurin/Alamar blue) in HEK-hP2X7 cells", "format": "cell-based, human", "details": "24 hours", "experimental": "HEK-hP2X7 or THP-1 cells were seeded at 5 × 10^3 cells per well in a volume of 100 μl for 24 hours in 96-well plates (Nunclon Edge plates, catalog number 167425; Thermo Scientific). Cells were plated in DMEM:F12 medium or RPMI 1640 medium containing 1% FBS and penicillin/streptomycin for 24 hours in a humidified incubator at 37°C with a constant supply of 5% CO2. Edge wells of the plates were filled with autoclaved distilled water to prevent evaporation of media from wells containing cells. The compounds and ATP were made at 2× final concentration in 1% FBS DMEM:F12 and 100 μl added to the cells for 24 hours. After incubation, resazurin sodium salt (CAS 62758-13-8; Sigma Aldrich) at 0.1 mg/ml in sterile PBS was added to the plate (20 into 200 µl culture medium per well). Cells were incubated for a further 2 hours in a humidified incubator at 37°C with a supply of 5% CO2. A Flexstation 3 microplate reader was used to acquire data. Endpoint fluorescence data were measured using 570 nm excitation wavelength, 600 nm emission wavelength (cutoff at 590 nm), and three reads per well (PMT low). Data were analyzed by performing background correction through subtracting blank medium readings (without cells) from all samples and then normalizing each sample to medium treated cells (control treatment, 100%) as percentage of control.\n(§1) Results are expressed as means ± S.D. from the indicated number of experiments. For YO-PRO-1 dye uptake and intracellular calcium experiments, each independent experiment used triplicate wells, and the means of the replicates were collated and plotted. Technical replicates were used to ensure reliability of fluorescence values. Cell viability data were normalized to the vehicle control for each experiment after background correction had been performed. Dose-response curves were plotted by a nonlinear regression fit with variable slope using GraphPad Prism software version 7. Half-maximal responses are expressed as EC50 values with 95% confidence intervals. These values were calculated from the collated data for each compound from three independent experiments. Statistical differences were determined by analysis of the data by one-way ANOVA followed by Dunnett’s multiple comparison test or Sidak’s multiple comparison test using GraphPad Prism version 7. P < 0.05 was the accepted minimum level of significance."}, "[1]": {"molecular_target": "T1, endogenous P2X7 in THP-1 cells (Homo sapiens, UniProt Q99572)", "T1 sequence (Q99572 1-394 limits assumed)": "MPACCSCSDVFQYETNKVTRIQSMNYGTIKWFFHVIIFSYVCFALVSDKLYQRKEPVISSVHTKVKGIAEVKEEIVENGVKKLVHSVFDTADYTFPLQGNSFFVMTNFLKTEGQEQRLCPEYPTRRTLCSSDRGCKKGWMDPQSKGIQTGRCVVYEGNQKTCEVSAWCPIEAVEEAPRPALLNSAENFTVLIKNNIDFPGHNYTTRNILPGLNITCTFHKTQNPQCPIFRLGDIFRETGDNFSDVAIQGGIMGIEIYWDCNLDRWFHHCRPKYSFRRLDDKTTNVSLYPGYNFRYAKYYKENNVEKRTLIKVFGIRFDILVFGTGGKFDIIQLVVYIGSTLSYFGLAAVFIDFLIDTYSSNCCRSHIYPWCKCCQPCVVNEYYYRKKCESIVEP", "test": "Fura-2 calcium measurements in THP-1 monocytes", "format": "cell-based", "details": "for Effect on ATP-induced calcium response: 500 µM ATP co-applied with 10 µM glycoside", "experimental": "THP-1 cells were pelleted by centrifugation (300g, 5 minute), washed, and resuspended in Hanks’ balanced salt solution buffer containing 2 μM fura-2 AM (HelloBio) and 250 μM (±)-sulfinpyrazone. Cells were loaded for 1 hour in a waterbath at 37°C while shielded from light with foil. Loaded cells were washed once with 5 ml Hanks’ balanced salt solution to remove excess fura-2 AM dye. THP-1 cells were then resuspended, counted, and plated at 2 × 10^5 cells per well in a standard clear 96-well plate (NUNC 167008; Thermo Scientific) in low divalent assay buffer without Mg^2+ (145 mM NaCl, 2 mM KCl and 2 mM CaCl2, 13 mM glucose, 10 mM HEPES, pH 7.3) containing 250 μM (±)-sulfinpyrazone. The 10× concentration of agonist (ATP) was prepared in the same assay buffer. ATP was injected automatically into wells at 30 seconds in a Flexstation 3 microplate reader. Ratiometric data were acquired using 340 and 380 nm for excitation wavelengths, 520 nm as the emission wavelength, and six reads per well (PMT medium). Area under the curve was calculated using standard zero baseline normalization with a lag time 0–300 seconds using SoftMax Pro version 5.4 software.\nas §1, with “Cell viability data were normalized to the vehicle control for each experiment after background correction had been performed.” left out"}, "human P2X7": {"molecular_target": "T2, human P2X7 (Homo sapiens, UniProt Q99572)", "T2 construct": "expressed in transfected cells", "T2 sequence (Q99572 1-595)": "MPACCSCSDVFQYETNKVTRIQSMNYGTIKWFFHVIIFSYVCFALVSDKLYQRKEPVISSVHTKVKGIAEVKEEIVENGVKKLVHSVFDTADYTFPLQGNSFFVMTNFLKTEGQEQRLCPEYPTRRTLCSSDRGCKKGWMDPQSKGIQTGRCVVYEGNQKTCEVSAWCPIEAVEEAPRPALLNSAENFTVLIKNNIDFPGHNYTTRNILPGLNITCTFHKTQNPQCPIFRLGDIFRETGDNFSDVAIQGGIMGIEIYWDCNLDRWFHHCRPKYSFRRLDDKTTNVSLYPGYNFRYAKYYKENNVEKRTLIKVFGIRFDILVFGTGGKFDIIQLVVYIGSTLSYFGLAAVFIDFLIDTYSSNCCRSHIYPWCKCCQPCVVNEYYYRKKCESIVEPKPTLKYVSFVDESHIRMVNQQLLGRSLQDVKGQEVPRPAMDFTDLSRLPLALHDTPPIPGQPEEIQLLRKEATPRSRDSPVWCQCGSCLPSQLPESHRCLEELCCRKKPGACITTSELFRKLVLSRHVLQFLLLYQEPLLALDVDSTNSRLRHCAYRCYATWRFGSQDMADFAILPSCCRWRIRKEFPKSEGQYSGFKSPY", "test": "YO-PRO-1 dye uptake assay in HEK-hP2X7 cells", "format": "cell-based", "details": "10 µM glycoside; for PAM effect on ATP dose-response curve: HEK-hP2X7, result in words; for EC50 ratio: average EC50 for ATP + vehicle of each set of experiments used; for Maximum response (fold increase): maximum response defined at 1 mM ATP", "experimental": "ATP-induced dye uptake experiments were performed as described previously ([Bidula et al., 2019b]). Briefly, HEK-hP2X7 cells were plated at 2 × 10^4 cells per well (100 μl per well) in complete medium and left overnight to attach to poly-D-lysine–coated 96-well plates. YO-PRO-1 iodide was prepared in a low divalent buffered solution ([…], 2 mM KCl, 13 mM D-glucose, 10 mM HEPES, 0.2 mM CaCl2 pH 7.3) to a final concentration of 2 μM. Medium was removed from the plate using a manual multichannel pipette and YO-PRO-1 containing buffer applied to wells (180 μl per well). […] A Flexstation 3 plate reader (Molecular Devices, Sunnyvale, CA) was used to record YO-PRO-1 fluorescence in HEK-hP2X7 for 300 seconds after the addition of ATP (at 10× final concentration) with/without ginsenoside compounds or vehicle (DMSO). Plates were allowed to warm up to 37°C for 10 minutes before initiating the recording. Baseline recordings were made for 40 seconds before compound addition using the Flexstation 3 fluidics system. YO-PRO-1 fluorescence was measured at 520 nm after excitation at 490 nm (auto cutoff at 495 nm), and the sample interval was 3.5 seconds. Flexstation settings were photomultiplier tube (PMT) medium, six reads per well, pipette height 170, and a rate of injection of 3. Data were acquired using Softmax Pro version 5.4 (Molecular Devices). To analyze the data, area under the dye uptake curve was calculated in Softmax Pro version 5 using zero baseline data with a lag time of 50 seconds (50–300 seconds).\nas §1, with “Cell viability data were normalized to the vehicle control for each experiment after background correction had been performed.” left out"}},
  "data": [
    {"compound": "CC(C)=CCC[C@](C)(O)[C@H]1CC[C@]2(C)[C@@H]1[C@H](O)C[C@@H]1[C@@]3(C)CC[C@H](O[C@@H]4O[C@H](CO)[C@@H](O)[C@H](O)[C@H]4O[C@@H]4O[C@H](CO)[C@@H](O)[C@H](O)[C@H]4O)C(C)(C)[C@@H]3CC[C@]12C", "note": "[Ginsenoside-20(S)-Rg3, 20(S)-ginsenoside-Rg3]", "values": [
      {"measurement": "Cell viability in combination with ATP", "setting": "HEK-hP2X7 cells", "result": "could reduce cell viability"},
      {"measurement": "Effect on ATP-induced calcium response", "setting": "[1]", "result": "potentiated"},
      {"measurement": "PAM effect on ATP dose-response curve", "setting": "human P2X7", "result": "positive modulator activity with a reduced EC50 for ATP and increased maximal response"},
      {"measurement": "EC50 ratio", "setting": "human P2X7", "result": 1.8},
      {"measurement": "Maximum response (fold increase)", "setting": "human P2X7", "result": 2.4, "unit": "fold"}
    ]},
    {"compound": "CC(C)=CCC[C@](C)(O[C@@H]1O[C@H](CO)[C@@H](O)[C@H](O)[C@H]1O)[C@H]1CC[C@]2(C)[C@@H]1[C@H](O)C[C@@H]1[C@@]3(C)CC[C@H](O[C@@H]4O[C@H](CO)[C@@H](O)[C@H](O)[C@H]4O[C@@H]4O[C@H](CO)[C@@H](O)[C@H](O)[C@H]4O)C(C)(C)[C@@H]3CC[C@]12C", "note": "[Ginsenoside-Rd, ginsenoside-Rd]", "values": [
      {"measurement": "Cell viability in combination with ATP", "setting": "HEK-hP2X7 cells", "result": "very effective at enhancing cell death"},
      {"measurement": "Effect on ATP-induced calcium response", "setting": "[1]", "result": "potentiated"},
      {"measurement": "PAM effect on ATP dose-response curve", "setting": "human P2X7", "result": "mixed type I/II effects"},
      {"measurement": "EC50 ratio", "setting": "human P2X7", "result": 3.8},
      {"measurement": "Maximum response (fold increase)", "setting": "human P2X7", "result": 2.77, "unit": "fold"}
    ]},
    {"compound": "CC(C)=CCC[C@@](C)(O)[C@H]1CC[C@]2(C)[C@@H]1[C@H](O)C[C@@H]1[C@@]3(C)CC[C@H](O[C@@H]4O[C@H](CO)[C@@H](O)[C@H](O)[C@H]4O[C@@H]4O[C@H](CO)[C@@H](O)[C@H](O)[C@H]4O)C(C)(C)[C@@H]3CC[C@]12C", "note": "[Ginsenoside-20(R)-Rg3, 20(R)-ginsenoside-Rg3]", "values": [
      {"measurement": "Cell viability in combination with ATP", "setting": "HEK-hP2X7 cells", "result": "neither gypenoside XVII nor 20(R)-Rg3 in combination with ATP affected cell viability"},
      {"measurement": "PAM effect on ATP dose-response curve", "setting": "human P2X7", "result": "inactive"},
      {"measurement": "EC50 ratio", "setting": "human P2X7", "result": 1.0},
      {"measurement": "Maximum response (fold increase)", "setting": "human P2X7", "result": 0.94, "unit": "fold"}
    ]},
    {"compound": "CC(C)=CCC[C@](C)(O[C@@H]1O[C@H](CO)[C@@H](O)[C@H](O)[C@H]1O)[C@H]1CC[C@]2(C)[C@@H]1[C@H](O)C[C@@H]1[C@@]3(C)CC[C@H](O)C(C)(C)[C@@H]3[C@@H](O)C[C@]12C", "note": "[Ginsenoside-F1, ginsenoside-F1]", "values": [
      {"measurement": "Effect on ATP-induced calcium response", "setting": "[1]", "result": "inactive"},
      {"measurement": "PAM effect on ATP dose-response curve", "setting": "human P2X7", "result": "did not potentiate P2X7 responses"},
      {"measurement": "EC50 ratio", "setting": "human P2X7", "result": 1.1},
      {"measurement": "Maximum response (fold increase)", "setting": "human P2X7", "result": 1.46, "unit": "fold"}
    ]},
    {"compound": "O=C1CSC(=O)N1C(CCc1ccncc1)COc1ccc(-c2cccc([N+](=O)[O-])c2)cc1", "note": "(centres unmarked) [AZ11645373, reference compound]", "values": [
      {"measurement": "Antagonist effect on ginsenoside-CK potentiated calcium response", "setting": "[1]; 10 µM antagonist pretreatment, 500 µM ATP + ginsenoside-CK", "result": "completely abolished"},
      {"measurement": "Antagonist effect on calcium response to ATP alone", "setting": "[1]; 500 µM ATP, antagonist pretreatment", "result": "did not dramatically affect"}
    ]},
    {"compound": "CC(C)=CCC[C@](C)(O[C@@H]1O[C@H](CO[C@@H]2O[C@H](CO)[C@@H](O)[C@H](O)[C@H]2O)[C@@H](O)[C@H](O)[C@H]1O)[C@H]1CC[C@]2(C)[C@@H]1[C@H](O)C[C@@H]1[C@@]3(C)CC[C@H](O[C@@H]4O[C@H](CO)[C@@H](O)[C@H](O)[C@H]4O)C(C)(C)[C@@H]3CC[C@]12C", "note": "[Gypenoside XVII, gypenoside XVII]", "values": [
      {"measurement": "Cell viability in combination with ATP", "setting": "HEK-hP2X7 cells", "result": "neither gypenoside XVII nor 20(R)-Rg3 in combination with ATP affected cell viability"},
      {"measurement": "EC50 ratio", "setting": "human P2X7", "result": 2.4},
      {"measurement": "Maximum response (fold increase)", "setting": "human P2X7", "result": 2.0, "unit": "fold"},
      {"measurement": "Maximum response (fold increase)", "setting": "human P2X7; listed as gypenoside XVII", "result": 2, "unit": "fold"}
    ]},
    {"compound": "CC(C)=CCC[C@](C)(O[C@@H]1O[C@H](CO)[C@@H](O)[C@H](O)[C@H]1O)[C@H]1CC[C@]2(C)[C@@H]1[C@H](O)C[C@@H]1[C@@]3(C)CC[C@H](O[C@@H]4O[C@H](CO)[C@@H](O)[C@H](O)[C@H]4O)C(C)(C)[C@@H]3CC[C@]12C", "note": "[Ginsenoside-F2, ginsenoside-F2]", "values": [
      {"measurement": "Cell viability in combination with ATP", "setting": "HEK-hP2X7 cells", "result": "could reduce cell viability"},
      {"measurement": "Effect on ATP-induced calcium response", "setting": "[1]", "result": "potentiated"},
      {"measurement": "PAM effect on ATP dose-response curve", "setting": "human P2X7", "result": "mixed type I/II effect"},
      {"measurement": "EC50 ratio", "setting": "human P2X7", "result": 5.4},
      {"measurement": "Maximum response (fold increase)", "setting": "human P2X7", "result": 2.23, "unit": "fold"}
    ]}
  ]
}
